pIC50: −log10 of the molar value.
Assays:
Format in all cases: cell-based
TYK2 [1] = molecular target: T1, TYK2 (Homo sapiens, UniProt P29597, E957D); experiment: TYK2 kinase activity inhibition assay (Ba/F3-FL-TYK2-E957D cell proliferation, CellTiter-Glo); conditions: 72 h
T1 construct: host or cells: Ba/F3 (murine B lymphocytes)
Method: The TYK2 kinase gene was introduced into wild-type murine-derived B lymphocytes (BaF3) to construct the Ba/F3-FL-TYK2-E957D stable cell line.
In this experiment, the inhibitory effect of the compounds on the proliferation of Ba/F3-FL-TYK2-E957D cells were tested, apoptosis was detected, and the IC50 value was calculated. The inhibitory activity of the compounds against TYK2 kinase was evaluated based on the IC50 value.
The tested compounds, powder and stored at room temperature, were prepared into 10 mM stock solution with DMSO and stored at −20° C. away from light for use.
Compounds were prepared into dilute solutions which was 1000 times of the final concentration. The compound was prepared into 20-times of the final concentration by diluting the compound with culture medium. 2 ul of 1000-times compound was added to per well to 98 ul of culture medium.
Cells (provided by Sundia Pharmaceutical Technology (Shanghai) Co., Ltd.) were resuspended and counted using an automated cell counter. The cell suspension was diluted to the desired density based on BaF3 seeding density of 2000 cells per well. Each well was plated with 95 ul of cells and incubated at 37° C. for stable equilibrium. 5 ul of 20-times compound was added to each well, with the wells to which the same volume of DMSO was added as a control.
The cell plate was equilibrated to room temperature. 40 ul CellTiter-Glo® Reagent was added to each well, shaken for 2 minutes and allowed to stand for 10 minutes. Detected with SpectraMax Paradigm.
• (1) IC50 was calculated using GraphPad Prism 5. • (2) % Inh=(Max signal−Compound signal)/(Max signal−Min signal)×100. • (3) Max signal was the positive control well with only the same volume of DMSO as the compound. • (4) Min signal was the negative control well with only the culture medium.

TYK2 [2] = molecular target: T1, TYK2; experiment: JAK family kinase selectivity assay, Ba/F3-FL-TYK2-E957D cell proliferation; conditions: 72 h
Excerpt: (§1) There are four kinases in the JAK family, respectively TYK2, JAK1, JAK2 and JAK3. JAK family kinase genes were introduced into the wild-type murine B lymphocytes (BaF3), and four BaF3 engineered cell lines were constructed respectively (Ba/F3-FL-TYK2-E957D, Ba/F3-TEL-JAK1, Ba/F3-TEL-JAK2, Ba/F3-TEL-JAK3). The growth and proliferation of these engineered cell lines were not dependent on IL-3, but on exogenously transferred JAK family kinases.
(§2) In this experiment, the inhibitory effects of the compounds on the proliferation of four cell types, Ba/F3-FL-TYK2-E957D, Ba/F3-TEL-JAK1, Ba/F3-TEL-JAK2, and Ba/F3-TEL-JAK3 were tested, and apoptosis was detected, and the IC50 values were calculated. The inhibitory activities of the compounds against TYK2, JAK1, JAK2, and JAK3 kinases were evaluated based on the IC50 value, thus assessing the JAK family kinase selectivity of the compounds. […]
(§3) Cells (provided by Sundia Pharmaceutical Technology (Shanghai) Co., Ltd.) were resuspended and counted using an automated cell counter. […]
(§4) The cell plate was equilibrated to room temperature. […] Detected with SpectraMax Paradigm.
(§5) • (1) IC50 was calculated using GraphPad Prism 5. • (2) % Inh=(Max signal-Compound signal)/(Max signal-Min signal)×100. • (3) Max signal was the positive control well with only the same volume of DMSO as the compound. • (4) Min signal was the negative control well with only the culture medium.

JAK1 = molecular target: T2, JAK1 (Homo sapiens, UniProt P23458, cells depend on it, form not given); experiment: JAK family kinase selectivity assay, Ba/F3-TEL-JAK1 cell proliferation; conditions: Ba/F3-TEL-JAK1, 72 h; read-out: Ba/F3 Cell IC50 JAK1
T2 construct: fused on or other part: N-terminal part of TEL (ETV6) as oligomerising partner; P41212 (Transcription factor ETV6)
Excerpt: as §1, §2, §3, §4, §5

hERG potassium channel = molecular target: T3, hERG potassium channel (Homo sapiens, UniProt Q12809); experiment: hERG potassium channel inhibition assay (CHO-hERG cells, Qpatch automated patch clamp); conditions: highest tested concentration 40 μM
T3 construct: expressed in transfected cells; host or cells: CHO
Method: 4.1 Purpose of the Experiment The blocking effect of the compounds in the present invention on hERG potassium currents on stable cell lines transfected with hERG potassium channels was tested by applying a fully automated membrane clamp.
CHO-hERG cells were cultured in 175 cm^2 culture flasks, and when the cell density grew to 60-80%, the culture medium was removed and washed with 7 ml of PBS (Phosphate Buffered Saline), and then 3 ml of Detachin was added for digestion.
When digestion was completed, 7 ml of culture medium was added to neutralize the cells, then centrifuged, the supernatant was removed, and 5 ml of culture medium was added to resuspend the cells to ensure that the cell density is 2-5×10^6/ml.
The single-cell high-impedance sealing and whole-cell pattern formation processes were all automated with the Qpatch instrument. After obtaining the recording pattern, the cells were clamped at −80 mV, and a −50 mV preconditioning voltage was given for 50 ms prior to giving a +40 mV depolarizing stimulus for 5 s. The cell was then repolarized to −50 mV to be maintained for 5 s and then returned to −80 mV. This voltage stimulus was applied every 15 s. […]
The experimental data was analyzed by XLFit software.

T1 sequence (P29597 whole entry E957D): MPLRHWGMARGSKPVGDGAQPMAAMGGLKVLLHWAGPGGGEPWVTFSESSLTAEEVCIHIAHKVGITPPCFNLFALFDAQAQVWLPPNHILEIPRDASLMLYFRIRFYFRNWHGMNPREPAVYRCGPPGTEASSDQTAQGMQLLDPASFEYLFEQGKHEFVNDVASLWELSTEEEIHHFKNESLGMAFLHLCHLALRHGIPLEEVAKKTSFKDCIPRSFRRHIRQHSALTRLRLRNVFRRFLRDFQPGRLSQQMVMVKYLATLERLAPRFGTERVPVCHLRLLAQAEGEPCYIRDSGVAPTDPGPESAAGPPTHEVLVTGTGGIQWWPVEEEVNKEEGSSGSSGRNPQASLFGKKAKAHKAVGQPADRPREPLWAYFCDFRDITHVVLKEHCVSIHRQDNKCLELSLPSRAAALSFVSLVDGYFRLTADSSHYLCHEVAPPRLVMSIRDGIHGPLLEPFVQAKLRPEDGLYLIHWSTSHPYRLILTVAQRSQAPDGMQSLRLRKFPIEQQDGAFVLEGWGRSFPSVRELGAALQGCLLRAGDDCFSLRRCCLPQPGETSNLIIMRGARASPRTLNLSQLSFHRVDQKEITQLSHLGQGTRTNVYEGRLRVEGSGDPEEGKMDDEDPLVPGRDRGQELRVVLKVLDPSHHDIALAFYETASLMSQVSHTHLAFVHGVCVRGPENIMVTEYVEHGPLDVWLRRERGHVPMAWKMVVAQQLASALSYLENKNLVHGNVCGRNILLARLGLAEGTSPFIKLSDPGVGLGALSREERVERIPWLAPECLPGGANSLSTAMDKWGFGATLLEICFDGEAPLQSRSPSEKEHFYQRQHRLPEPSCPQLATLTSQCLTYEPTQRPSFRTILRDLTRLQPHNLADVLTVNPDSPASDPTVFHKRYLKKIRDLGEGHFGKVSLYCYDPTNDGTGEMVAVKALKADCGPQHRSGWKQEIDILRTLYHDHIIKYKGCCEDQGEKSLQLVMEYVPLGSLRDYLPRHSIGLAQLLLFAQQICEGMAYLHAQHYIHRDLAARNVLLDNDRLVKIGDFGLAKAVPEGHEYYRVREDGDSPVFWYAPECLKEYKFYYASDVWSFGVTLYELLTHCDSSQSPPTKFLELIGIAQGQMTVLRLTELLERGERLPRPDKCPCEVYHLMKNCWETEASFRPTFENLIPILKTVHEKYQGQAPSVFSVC
T3 sequence (Q12809 whole entry): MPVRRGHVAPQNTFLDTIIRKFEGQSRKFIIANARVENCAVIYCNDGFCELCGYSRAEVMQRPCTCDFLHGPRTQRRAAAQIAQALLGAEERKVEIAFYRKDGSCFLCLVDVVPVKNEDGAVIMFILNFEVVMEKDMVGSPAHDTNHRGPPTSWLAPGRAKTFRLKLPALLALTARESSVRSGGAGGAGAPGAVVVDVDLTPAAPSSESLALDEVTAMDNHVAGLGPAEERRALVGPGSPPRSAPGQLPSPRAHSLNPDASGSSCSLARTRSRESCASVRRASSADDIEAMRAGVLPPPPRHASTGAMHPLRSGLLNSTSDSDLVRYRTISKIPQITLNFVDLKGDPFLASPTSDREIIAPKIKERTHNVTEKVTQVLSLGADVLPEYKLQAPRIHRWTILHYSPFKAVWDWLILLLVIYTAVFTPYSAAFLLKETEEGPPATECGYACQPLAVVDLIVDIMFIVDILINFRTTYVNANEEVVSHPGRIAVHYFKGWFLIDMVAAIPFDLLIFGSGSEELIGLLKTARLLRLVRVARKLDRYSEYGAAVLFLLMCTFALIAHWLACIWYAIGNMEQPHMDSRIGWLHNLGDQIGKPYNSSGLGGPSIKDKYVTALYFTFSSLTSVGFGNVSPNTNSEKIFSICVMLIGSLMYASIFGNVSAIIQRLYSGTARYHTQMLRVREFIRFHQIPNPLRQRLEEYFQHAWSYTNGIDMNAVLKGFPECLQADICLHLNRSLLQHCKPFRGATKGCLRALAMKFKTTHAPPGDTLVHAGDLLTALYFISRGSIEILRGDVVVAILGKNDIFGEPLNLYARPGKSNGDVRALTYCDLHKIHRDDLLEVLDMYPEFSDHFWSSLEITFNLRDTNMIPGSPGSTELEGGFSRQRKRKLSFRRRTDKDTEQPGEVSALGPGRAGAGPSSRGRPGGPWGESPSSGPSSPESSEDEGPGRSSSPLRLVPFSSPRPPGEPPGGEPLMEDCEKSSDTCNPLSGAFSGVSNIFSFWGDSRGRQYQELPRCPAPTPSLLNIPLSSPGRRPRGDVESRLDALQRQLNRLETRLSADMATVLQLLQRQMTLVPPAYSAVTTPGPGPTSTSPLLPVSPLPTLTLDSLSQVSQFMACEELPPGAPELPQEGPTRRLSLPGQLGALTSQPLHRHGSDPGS
T2 sequence (P23458 875-1154 limits assumed, change not shown): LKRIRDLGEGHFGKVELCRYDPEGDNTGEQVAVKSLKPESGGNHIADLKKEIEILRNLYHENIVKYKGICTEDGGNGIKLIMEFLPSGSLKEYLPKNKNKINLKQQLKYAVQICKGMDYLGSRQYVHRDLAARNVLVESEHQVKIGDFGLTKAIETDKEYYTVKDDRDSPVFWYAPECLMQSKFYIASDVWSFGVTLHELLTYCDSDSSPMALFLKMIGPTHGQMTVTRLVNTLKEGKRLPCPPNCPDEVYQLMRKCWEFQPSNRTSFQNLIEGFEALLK

SMILES	pIC50 (TYK2 [1])	pIC50 (TYK2 [2])	GI50 (JAK1) [nM]	pIC50 (hERG potassium channel)
[2H]C([2H])([2H])NC(=O)c1nnc(NC(=O)C2CC2)cc1Nc1nc(N)c(Cl)cc1[S@@](C)(=O)=NC [Example 28]	9.22	9.22	> 1000	< 4.52
[2H]C([2H])([2H])NC(=O)c1nnc(NC(=O)C2CC2)cc1Nc1nc(N)c(Cl)cc1[S@](C)(=N)=O [Example 29, (R)-4-((6-amino-5-chloro-3-(S-methylsulfoximino)pyridin-2-yl)amino)-6-(cyclopropylcarboxamido)-N-(methyl-d3)pyridazine-3-carboxamide]	8.96	8.96	> 1000	< 4.52
